Measured values reported in patent US20080233127A1, “IMIDAZOLOPYRIMIDINE ANALOGS AND THEIR USE AS PI3 KINASE AND MTOR INHIBITORS” (Wyeth, priority 2007, published 2008).

What was measured:
human TOR = target: T1, human TOR (Homo sapiens, UniProt P42345); assay: mTOR enzyme assay (DELFIA format, purified FLAG-TOR, His6-S6K substrate); type: biochemical; details: 100 μM ATP, 1.25 μM His6-S6K, 2 hours at room temperature; read-out: TOR Kinase Median IC50
T1 construct: FLAG

PI3 Kinase = assay: PI3K fluorescence polarization assay; type: biochemical; details: 25 μM ATP, diC8-PI(4,5)P2 substrate, 1 hour at 25° C.; read-out: PI3 Kinase Median IC50

SMILES | IC50 (human TOR) [µM] | IC50 (PI3 Kinase) [µM]
c1nc2c(N3CCOCC3)nc(-c3ccc4c(c3)OCO4)nc2[nH]1 [Compound 7, 2-(1,3-benzodioxol-5-yl)-6-morpholin-4-yl-9H-purine] | 8.9 | 1.23
COc1ccc(CN2CCC(n3cnc4c(N5CCOCC5)nc(-c5cccc(CO)c5)nc43)CC2)cn1 [Compound 64, [3-(9-{1-[(6-methoxypyridin-3-yl)methyl]piperidin-4-yl}-6-morpholin-4-yl-9H-purin-2-yl)phenyl]methanol] | > 4 | 0.168
OCc1cccc(-c2nc(N3CCOCC3)c3ncn(C4CCNCC4)c3n2)c1 [Compound 25, [3-(6-Morpholin-4-yl-9-piperidin-4-yl-9H-purin-2-yl)-phenyl]-methanol] | 7.2 | 0.057
OCc1cccc(-c2nc(N3CCOCC3)c3ncn(C4CCN(Cc5c[nH]c6ccc(F)cc56)CC4)c3n2)c1 [Compound 73, [3-(9-{1-[(5-fluoro-1H-indol-3-yl)methyl]piperidin-4-yl}-6-morpholin-4-yl-9H-purin-2-yl)phenyl]methanol] | 1.3 | 0.03
CC(C)(C)OC(=O)N1CCC(n2cnc3c(N4CCOCC4)nc(-c4cccc(CO)c4)nc32)CC1 [Compound 59, tert-butyl 4-{2-[3-(hydroxymethyl)phenyl]-6-morpholin-4-yl-9H-purin-9-yl}piperidine-1-carboxylate] | 1.4 | 0.095
OCc1cccc(-c2nc(N3CCOCC3)c3ncn(C4CCN(Cc5ccc(F)cc5Cl)CC4)c3n2)c1 [Compound 69, (3-{9-[1-(2-chloro-4-fluorobenzyl)piperidin-4-yl]-6-morpholin-4-yl-9H-purin-2-yl}phenyl)methanol] | 1.55 | 0.077
OCc1cccc(-c2nc(N3CCOCC3)c3ncn(C4CCN(Cc5cccc(F)c5)CC4)c3n2)c1 [Compound 50, (3-{9-[1-(3-fluorobenzyl)piperidin-4-yl]-6-morpholin-4-yl-9H-purin-2-yl}phenyl)methanol] | 1.4 | 0.094
OCc1cccc(-c2nc(N3CCOCC3)c3ncn(C4CCN(Cc5ccc(F)c(F)c5)CC4)c3n2)c1 [Compound 62, (3-{9-[1-(3,4-difluorobenzyl)piperidin-4-yl]-6-morpholin-4-yl-9H-purin-2-yl}phenyl)methanol] | 1.2 | 0.042
OCc1cccc(-c2nc(N3CCOCC3)c3ncn(CC4CCN(Cc5ccccc5)CC4)c3n2)c1 [Compound 29, (3-(9-((1-benzylpiperidin-4-yl)methyl)-6-morpholino-9H-purin-2-yl)phenyl)methanol] | 10.5 | 0.243
OCc1cccc(-c2nc(N3CCOCC3)c3ncn(CCN4CCCCC4)c3n2)c1 [Compound 86, {3-[6-morpholin-4-yl-9-(2-piperidin-1-ylethyl)-9H-purin-2-yl]phenyl}methanol] | 13 | 0.091
OCc1cccc(-c2nc(N3CCOCC3)c3ncn(C4CCN(Cc5ccc(Cl)nc5)CC4)c3n2)c1 [Compound 63, [3-(9-{1-[(6-chloropyridin-3-yl)methyl]piperidin-4-yl}-6-morpholin-4-yl-9H-purin-2-yl)phenyl]methanol] | 0.65 | 0.045
OCc1ccc(-c2nc(N3CCOCC3)c3nc[nH]c3n2)cc1 [Compound 5, [4-(6-morpholin-4-yl-9H-purin-2-yl)phenyl]methanol] | 4.5 | 3.75
Oc1cccc(-c2nc(N3CCOCC3)c3ncn(CCN4CCCCC4)c3n2)c1 [Compound 85, 3-[6-morpholin-4-yl-9-(2-piperidin-1-ylethyl)-9H-purin-2-yl]phenol] | 9.8 | 0.163
OCc1cccc(-c2nc(N3CCOCC3)c3ncn(C4CCN(Cc5ccc(F)cc5)CC4)c3n2)c1 [Compound 46, (3-{9-[1-(4-fluorobenzyl)piperidin-4-yl]-6-morpholin-4-yl-9H-purin-2-yl}phenyl)methanol] | 1.7 | 0.07
CCCCN1CCC(n2cnc3c(N4CCOCC4)nc(-c4cccc(CO)c4)nc32)CC1 [Compound 48] | 4.2 | 0.096
OCc1cccc(-c2nc(N3CCOCC3)c3ncn(C4CCN(Cc5ncc[nH]5)CC4)c3n2)c1 [Compound 70, (3-{9-[1-(1H-imidazol-2-ylmethyl)piperidin-4-yl]-6-morpholin-4-yl-9H-purin-2-yl}phenyl)methanol] | 1.5 | 0.152
Oc1cncc(-c2nc(N3CCOCC3)c3nc[nH]c3n2)c1 [Compound 43, 5-(6-morpholin-4-yl-9H-purin-2-yl)pyridin-3-ol] | 0.62 | 0.011
CC(=O)N1CCC(n2cnc3c(N4CCOCC4)nc(-c4cccc(CO)c4)nc32)CC1 [Compound 26, 1-(4-(2-(3-(hydroxymethyl)phenyl)-6-morpholino-9H-purin-9-yl)piperidin-1-yl)ethanone] | 2.1 | 0.189
OCc1cccc(-c2nc(N3CCOCC3)c3ncn(C4CCN(Cc5c(F)cc(F)cc5F)CC4)c3n2)c1 [Compound 60, (3-{6-morpholin-4-yl-9-[1-(2,4,6-trifluorobenzyl)piperidin-4-yl]-9H-purin-2-yl}phenyl)methanol] | 3.3 | 0.194
COCOc1cncc(-c2nc(N3CCOCC3)c3ncn(C4CCN(C(=O)OC(C)(C)C)CC4)c3n2)c1 [Compound 58, tert-butyl-4-{2-[5-(methoxymethoxy)pyridin-3-yl]-6-morpholin-4-yl-9H-purin-9-yl}piperidine-1-carboxylate] | > 4 | 2.09
c1csc(-c2nc(N3CCOCC3)c3nc[nH]c3n2)c1 [Compound 1, 6-morpholin-4-yl-2-(2-thienyl)-9H-purine] | 2.8 | 0.724

Stronger by IC50 (human TOR), values ahead:

IC50 (human TOR) [µM] | IC50 (PI3 Kinase) [µM] | SMILES
0.29 | 0.156 | Oc1cccc(-c2nc(N3CCOCC3)c3ncn(C4CCN(Cc5ccccn5)CC4)c3n2)c1 [Compound 77, 3-{6-morpholin-4-yl-9-[1-(pyridin-2-ylmethyl)piperidin-4-yl]-9H-purin-2-yl}phenol]
0.45 | 2.68 | Oc1ccc(-c2nc(N3CCOCC3)c3nc[nH]c3n2)cc1 [Compound 4, 4-(6-morpholin-4-yl-9H-purin-2-yl)phenol]
0.36 | 0.083 | CN(C)c1ccc(CN2CCC(n3cnc4c(N5CCOCC5)nc(-c5cccc(O)c5)nc43)CC2)c2ccccc12 [Compound 83, 3-[9-(1-{[4-(dimethylamino)-1-naphthyl]methyl}piperidin-4-yl)-6-morpholin-4-yl-9H-purin-2-yl]phenol]
0.14 | 0.026 | Cc1ccc(CN2CCC(n3cnc4c(N5CCOCC5)nc(-c5cncc(O)c5)nc43)CC2)s1 [Compound 37, 5-(9-{1-[(5-methyl-2-thienyl)methyl]piperidin-4-yl}-6-morpholin-4-yl-9H-purin-2-yl)pyridin-3-ol]
0.17 | 0.077 | O=Cc1cncc(-c2nc(N3CCOCC3)c3ncn(C4CCN(Cc5ccccc5)CC4)c3n2)c1 [Compound 34, 5-[9-(1-benzylpiperidin-4-yl)-6-morpholin-4-yl-9H-purin-2-yl]nicotinaldehyde]
0.57 | 0.094 | Oc1cncc(-c2nc(N3CCOCC3)c3ncn(C4CCN(Cc5ccc(F)nc5)CC4)c3n2)c1 [Compound 41, 5-{9-[1-(6-fluoro-pyridin-3-ylmethyl)-piperidin-4-yl]-6-morpholin-4-yl-9H-purin-2-yl}-pyridin-3-ol]
0.31 | 0.07 | Oc1cccc(-c2nc(N3CCOCC3)c3ncn(C4CCN(Cc5ccc(F)nc5)CC4)c3n2)c1 [Compound 84, 3-(9-{1-[(6-fluoropyridin-3-yl)methyl]piperidin-4-yl}-6-morpholin-4-yl-9H-purin-2-yl)phenol]
0.051 | 0.055 | COc1ccc(CN2CCC(n3cnc4c(N5CCOCC5)nc(-c5cccc(O)c5)nc43)CC2)cn1 [Compound 79, 3-(9-{1-[(6-methoxypyridin-3-yl)methyl]piperidin-4-yl}-6-morpholin-4-yl-9H-purin-2-yl)phenol]
0.0097 | 0.34 | CNC(=O)Nc1ccc(-c2nc(N3CCOCC3)c3ncn(C4CCN(Cc5cccnc5)CC4)c3n2)cc1 [Compound 89, 1-methyl-3-(4-(6-morpholino-9-(1-(pyridin-3-ylmethyl)piperidin-4-yl)-9H-purin-2-yl)phenyl)urea]
0.55 | 0.087 | Oc1cncc(-c2nc(N3CCOCC3)c3ncn(C4CCN(Cc5ccccc5)CC4)c3n2)c1 [Compound 87, 5-[9-(1-benzylpiperidin-4-yl)-6-morpholin-4-yl-9H-purin-2-yl]pyridin-3-ol]
0.49 | 0.046 | OCc1cccc(-c2nc(N3CCOCC3)c3ncn(C4CCN(Cc5ccco5)CC4)c3n2)c1 [Compound 52, (3-{9-[1-(2-furylmethyl)piperidin-4-yl]-6-morpholin-4-yl-9H-purin-2-yl}phenyl)methanol]
0.16 | 0.042 | OCc1cccc(-c2nc(N3CCOCC3)c3ncn(C4CCN(Cc5ccccc5F)CC4)c3n2)c1 [Compound 45, (3-{9-[1-(2-fluorobenzyl)piperidin-4-yl]-6-morpholin-4-yl-9H-purin-2-yl}phenyl)methanol]
0.5 | 0.085 | Oc1cncc(-c2nc(N3CCOCC3)c3ncn(C4CCN(Cc5ccc(F)nc5)CC4)c3n2)c1 [Compound 88, 5-(9-{1-[(6-fluoropyridin-3-yl)methyl]piperidin-4-yl}-6-morpholin-4-yl-9H-purin-2-yl)pyridin-3-ol]
0.58 | 0.05 | OCc1cccc(-c2nc(N3CCOCC3)c3ncn(C4CCN(Cc5cccc(Br)n5)CC4)c3n2)c1 [Compound 71, [3-(9-{1-[(6-bromopyridin-2-yl)methyl]piperidin-4-yl}-6-morpholin-4-yl-9H-purin-2-yl)phenyl]methanol]
